Values of other authors in patent US20190380987A1, “COMPOSITION AND METHOD FOR TREATING MUCOLYTIC AND INFLAMMATORY AIRWAY CONDITIONS” (priority 2018, published 2019).

Experiments:
[1] = system: CF patients; settings: 2700 mg of oral NAC per day in divided doses of 900 mg, controls declined

solubility in alcohol (alcohol): soluble | solubility in chloroform (chloroform): practically insoluble | solubility in ether (ether): practically insoluble | solubility in water (water): soluble
SMILES: CC(=O)N[C@@H](CS)C(=O)O [N-acetylcysteine]
lung function decline [1]: did not experience lung function decline
